From PubChem BioAssay AID1259407 (Chemical Carcinogenesis Research Information System (CCRIS), 2018)
Calls of active or inactive are those of the source. No rule for the calls is given here.

System: CCRIS mutagenicity, Ames/micronucleus/aberration tests
Assay: CCRIS mutagenicity studies

Measured: mutagenic call

ClC=C(Cl)Cl
active: Test System: AMES SALMONELLA TYPHIMURIUM, Strain/Indicator: TA97, Metabolic Activation: NONE, Method: STANDARD PLATE active; positive | Test System: AMES SALMONELLA TYPHIMURIUM, Strain/Indicator: TA97, Metabolic Activation: RAT, LIVER, S-9, AROCLOR 1254, Method: STANDARD PLATE active; positive | Test System: AMES SALMONELLA TYPHIMURIUM, Strain/Indicator: TA98, Metabolic Activation: RAT, LIVER, S-9, AROCLOR 1254, Method: STANDARD PLATE active; positive | Test System: AMES SALMONELLA TYPHIMURIUM, Strain/Indicator: TA100, Metabolic Activation: MOUSE, LIVER, S-9, AROCLOR 1254, Method: DESICCATOR active; positive | Test System: AMES SALMONELLA TYPHIMURIUM, Strain/Indicator: TA1535, Metabolic Activation: NONE, Method: DESICCATOR active; positive | Test System: AMES SALMONELLA TYPHIMURIUM, Strain/Indicator: TA1535, Metabolic Activation: RAT, LIVER, S-9, AROCLOR 1254, Method: DESICCATOR active; positive | Test System: MOUSE LYMPHOMA, Strain/Indicator: L5178Y (TK+/TK-), Metabolic Activation: RAT, LIVER, S-9, AROCLOR 1254, Method: SUSPENSION/PLATE active; positive
inactive: End Point: IN VITRO CHROMOSOMAL ABERRATIONS, Test System: CHINESE HAMSTER LUNG FIBROBLAST CELLS (CHL/IU), Metabolic Activation: NONE inactive; negative | End Point: IN VITRO CHROMOSOMAL ABERRATIONS, Test System: CHINESE HAMSTER LUNG FIBROBLAST CELLS (CHL/IU), Metabolic Activation: RAT, LIVER, S-9, PHENOBARBITAL AND 5,6-BENZOFLAVONE inactive; negative | End Point: IN VITRO CHROMOSOMAL ABERRATIONS, Test System: CHINESE HAMSTER OVARY CELLS, Metabolic Activation: NONE inactive; negative; precipitation occurred at all doses | End Point: IN VITRO CHROMOSOMAL ABERRATIONS, Test System: CHINESE HAMSTER OVARY CELLS, Metabolic Activation: RAT, LIVER, S-9, AROCLOR 1254 inactive; negative; precipitation occurred at all doses | End Point: IN VITRO MICRONUCLEUS, Test System: V79 CELLS, Metabolic Activation: NONE inactive; negative | End Point: IN VITRO MICRONUCLEUS, Test System: V79 CELLS, Metabolic Activation: RAT, LIVER, S-9, AROCLOR 1254 inactive; negative | Test System: AMES SALMONELLA TYPHIMURIUM, Strain/Indicator: TA98, Metabolic Activation: HAMSTER, LIVER, S-9, AROCLOR 1254, Method: DESICCATOR inactive; negative | Test System: AMES SALMONELLA TYPHIMURIUM, Strain/Indicator: TA98, Metabolic Activation: HAMSTER, LIVER, S-9, AROCLOR 1254, Method: PREINCUBATION inactive; negative | Test System: AMES SALMONELLA TYPHIMURIUM, Strain/Indicator: TA98, Metabolic Activation: NONE, Method: DESICCATOR inactive; negative | Test System: AMES SALMONELLA TYPHIMURIUM, Strain/Indicator: TA98, Metabolic Activation: NONE, Method: PREINCUBATION inactive; negative | Test System: AMES SALMONELLA TYPHIMURIUM, Strain/Indicator: TA98, Metabolic Activation: NONE, Method: STANDARD PLATE inactive; negative | Test System: AMES SALMONELLA TYPHIMURIUM, Strain/Indicator: TA98, Metabolic Activation: RAT, LIVER, S-9, AROCLOR 1254, Method: DESICCATOR inactive; negative | Test System: AMES SALMONELLA TYPHIMURIUM, Strain/Indicator: TA98, Metabolic Activation: RAT, LIVER, S-9, AROCLOR 1254, Method: PREINCUBATION inactive; negative | Test System: AMES SALMONELLA TYPHIMURIUM, Strain/Indicator: TA100, Metabolic Activation: HAMSTER, LIVER, S-9, AROCLOR 1254, Method: DESICCATOR inactive; negative | Test System: AMES SALMONELLA TYPHIMURIUM, Strain/Indicator: TA100, Metabolic Activation: HAMSTER, LIVER, S-9, AROCLOR 1254, Method: PREINCUBATION inactive; negative | Test System: AMES SALMONELLA TYPHIMURIUM, Strain/Indicator: TA100, Metabolic Activation: NONE, Method: DESICCATOR inactive; negative | Test System: AMES SALMONELLA TYPHIMURIUM, Strain/Indicator: TA100, Metabolic Activation: NONE, Method: PREINCUBATION inactive; negative | Test System: AMES SALMONELLA TYPHIMURIUM, Strain/Indicator: TA100, Metabolic Activation: NONE, Method: STANDARD PLATE inactive; negative | Test System: AMES SALMONELLA TYPHIMURIUM, Strain/Indicator: TA100, Metabolic Activation: NONE, Method: VAPOR CHAMBER inactive; negative | Test System: AMES SALMONELLA TYPHIMURIUM, Strain/Indicator: TA100, Metabolic Activation: RAT, LIVER, S-9, AROCLOR 1254, Method: DESICCATOR inactive; negative | Test System: AMES SALMONELLA TYPHIMURIUM, Strain/Indicator: TA100, Metabolic Activation: RAT, LIVER, S-9, AROCLOR 1254, Method: PREINCUBATION inactive; negative | Test System: AMES SALMONELLA TYPHIMURIUM, Strain/Indicator: TA100, Metabolic Activation: RAT, LIVER, S-9, AROCLOR 1254, Method: STANDARD PLATE inactive; negative | Test System: AMES SALMONELLA TYPHIMURIUM, Strain/Indicator: TA102, Metabolic Activation: S-9, Method: STANDARD PLATE inactive; negative | Test System: AMES SALMONELLA TYPHIMURIUM, Strain/Indicator: TA104, Metabolic Activation: NONE, Method: STANDARD PLATE inactive; negative | Test System: AMES SALMONELLA TYPHIMURIUM, Strain/Indicator: TA104, Metabolic Activation: RAT, LIVER, S-9, AROCLOR 1254, Method: STANDARD PLATE inactive; negative | Test System: AMES SALMONELLA TYPHIMURIUM, Strain/Indicator: TA1535, Metabolic Activation: HAMSTER, LIVER, S-9, AROCLOR 1254, Method: PREINCUBATION inactive; negative | Test System: AMES SALMONELLA TYPHIMURIUM, Strain/Indicator: TA1535, Metabolic Activation: NONE, Method: PREINCUBATION inactive; negative | Test System: AMES SALMONELLA TYPHIMURIUM, Strain/Indicator: TA1535, Metabolic Activation: NONE, Method: VAPOR CHAMBER inactive; negative | Test System: AMES SALMONELLA TYPHIMURIUM, Strain/Indicator: TA1535, Metabolic Activation: RAT, LIVER, S-9, AROCLOR 1254, Method: PREINCUBATION inactive; negative | Test System: AMES SALMONELLA TYPHIMURIUM, Strain/Indicator: TA1537, Metabolic Activation: HAMSTER, LIVER, S-9, AROCLOR 1254, Method: PREINCUBATION inactive; negative | Test System: AMES SALMONELLA TYPHIMURIUM, Strain/Indicator: TA1537, Metabolic Activation: NONE, Method: PREINCUBATION inactive; negative | Test System: AMES SALMONELLA TYPHIMURIUM, Strain/Indicator: TA1537, Metabolic Activation: RAT, LIVER, S-9, AROCLOR 1254, Method: PREINCUBATION inactive; negative | Test System: AMES SALMONELLA TYPHIMURIUM, Strain/Indicator: TA2638, Metabolic Activation: S-9, Method: STANDARD PLATE inactive; negative | Test System: E. COLI, Strain/Indicator: WP2 (PKM101), Metabolic Activation: S-9, Method: STANDARD PLATE inactive; negative | Test System: E. COLI, Strain/Indicator: WP2 UVRA (PKM101), Metabolic Activation: S-9, Method: STANDARD PLATE inactive; negative | Test System: MOUSE LYMPHOMA, Strain/Indicator: L5178Y (TK+/TK-), Metabolic Activation: NONE, Method: SUSPENSION/PLATE inactive; negative
